# Measurements taken from patent publication US8076487B2, “Pyridone derivative and herbicide” (Kumiai Chemical Industry Co., Ltd., priority 2006, dated 2011).
# Tests used:
# Test in all cases: Test Example 1: herbicidal effect by soil application to paddy field
# Assay type in all cases: in vivo
# Details in all cases: paddy field soil application; active ingredient 1,000 g per 1 hectare; wettable powder added dropwise to water surface the day after sowing; examined on the 21st day after application
# [1] = system: early watergrass (Echinochloa oryzicola Vasing)
# Text: (§1) Test Example 1 Test on Herbicidal Effect by Soil Application to Paddy Field In a 100 cm2 plastic pot, paddy field soil was filled. After puddling and leveling, seeds of early watergrass (Echinochloa oryzicola […] (Monochoria vaginalis ([…] Japanese bulrush (Scirpus juncoides Roxb.) were sown, and water was filled to be flooded to a water depth of 3 cm. […] Then, on the 21st day after the application to the plants grew in a greenhouse, the herbicidal effect was examined in accordance with a standard shown in Table 34. [table]
# [2] = system: Japanese bulrush (Scirpus juncoides Roxb.)
# Text: as §1
# [3] = system: heartshape false pickerelweed (Monochoria vaginalis (Burm.f.) C.Presl)
# Text: as §1
Compound,"herbicidal effect, Echinochloa oryzicola Vasing [1]","herbicidal effect, Scirpus juncoides Roxb. [2]","herbicidal effect, Monochoria vaginalis (Burm. f.) C. Presl [3]"
Cn1c(C(F)(F)F)ccc(C(=O)C2=C(Sc3ccccc3Cl)CCCC2=O)c1=O [II-11],5 (90% or more of herbicidal effect and crop phytotoxicity),5 (90% or more of herbicidal effect and crop phytotoxicity),5 (90% or more of herbicidal effect and crop phytotoxicity)
Cn1c(C(F)(F)F)ccc(C(=O)C2=C(Sc3cccc(Cl)c3)CCCC2=O)c1=O [II-12],5 (90% or more of herbicidal effect and crop phytotoxicity),5 (90% or more of herbicidal effect and crop phytotoxicity),5 (90% or more of herbicidal effect and crop phytotoxicity)
Cn1c(C(F)(F)F)ccc(C(=O)C2=C(Sc3ccc(Cl)cc3)CCCC2=O)c1=O [II-13],5 (90% or more of herbicidal effect and crop phytotoxicity),5 (90% or more of herbicidal effect and crop phytotoxicity),5 (90% or more of herbicidal effect and crop phytotoxicity)
Cn1c(C(F)(F)F)ccc(C(=O)C2=C(Sc3c(Cl)cccc3Cl)CCCC2=O)c1=O [II-15],5 (90% or more of herbicidal effect and crop phytotoxicity),5 (90% or more of herbicidal effect and crop phytotoxicity),5 (90% or more of herbicidal effect and crop phytotoxicity)
Cn1c(C(F)(F)F)ccc(C(=O)C2=C(Sc3c(Cl)c(Cl)c(Cl)c(Cl)c3Cl)CCCC2=O)c1=O [II-16],5 (90% or more of herbicidal effect and crop phytotoxicity),5 (90% or more of herbicidal effect and crop phytotoxicity),5 (90% or more of herbicidal effect and crop phytotoxicity)
Cn1c(C(F)(F)F)ccc(C(=O)C2=C(n3cccn3)CCCC2=O)c1=O [II-17],5 (90% or more of herbicidal effect and crop phytotoxicity),5 (90% or more of herbicidal effect and crop phytotoxicity),5 (90% or more of herbicidal effect and crop phytotoxicity)
Cn1c(C(F)(F)F)ccc(C(=O)C2=C(Sc3ccccc3)CC(C)(C)CC2=O)c1=O [II-19],5 (90% or more of herbicidal effect and crop phytotoxicity),5 (90% or more of herbicidal effect and crop phytotoxicity),5 (90% or more of herbicidal effect and crop phytotoxicity)
CC(CCn1c(C(F)(F)F)ccc(C(=O)C2=C(O)C(C)CCC(C)C2=O)c1=O)=C(F)F (stereo not drawn) [II-27],5 (90% or more of herbicidal effect and crop phytotoxicity),5 (90% or more of herbicidal effect and crop phytotoxicity),5 (90% or more of herbicidal effect and crop phytotoxicity)
COCCCn1c(C(F)(F)F)ccc(C(=O)C2=C(Sc3ccccc3)CCCC2=O)c1=O [II-30],5 (90% or more of herbicidal effect and crop phytotoxicity),5 (90% or more of herbicidal effect and crop phytotoxicity),5 (90% or more of herbicidal effect and crop phytotoxicity)
COC1=C(C(=O)c2ccc(C(F)(F)F)n(C)c2=O)C(=O)CCC1C (stereo not drawn) [II-35],5 (90% or more of herbicidal effect and crop phytotoxicity),5 (90% or more of herbicidal effect and crop phytotoxicity),5 (90% or more of herbicidal effect and crop phytotoxicity)
CCCS(=O)(=O)Oc1c(C(=O)c2ccc(C(F)(F)F)n(CC(C)OCc3ccccc3)c2=O)cnn1C (stereo not drawn) [IV-49],5 (90% or more of herbicidal effect and crop phytotoxicity),3 (50 to less than 70% of herbicidal effect and crop phytotoxicity),5 (90% or more of herbicidal effect and crop phytotoxicity)
Cn1ncc(C(=O)c2ccc(C(F)(F)F)n(CC[S+](C)[O-])c2=O)c1O (stereo not drawn) [IV-52],4 (70 to less than 90% of herbicidal effect and crop phytotoxicity),4 (70 to less than 90% of herbicidal effect and crop phytotoxicity),4 (70 to less than 90% of herbicidal effect and crop phytotoxicity)
CCCS(=O)(=O)Oc1c(C(=O)c2ccc(C(F)(F)F)n(CC[S+](C)[O-])c2=O)cnn1C (stereo not drawn) [IV-53],4 (70 to less than 90% of herbicidal effect and crop phytotoxicity),4 (70 to less than 90% of herbicidal effect and crop phytotoxicity),4 (70 to less than 90% of herbicidal effect and crop phytotoxicity)
CSCCCn1c(C(F)(F)F)ccc(C(=O)c2cnn(C)c2O)c1=O [IV-56],5 (90% or more of herbicidal effect and crop phytotoxicity),5 (90% or more of herbicidal effect and crop phytotoxicity),5 (90% or more of herbicidal effect and crop phytotoxicity)
CCCS(=O)(=O)Oc1c(C(=O)c2ccc(C(F)(F)F)n(CCCSC)c2=O)cnn1C [IV-57],5 (90% or more of herbicidal effect and crop phytotoxicity),2 (30 to less than 50% of herbicidal effect and crop phytotoxicity),5 (90% or more of herbicidal effect and crop phytotoxicity)
CCCS(=O)(=O)Oc1c(C(=O)c2ccc(C(F)(F)F)n(CCC[S+](C)[O-])c2=O)cnn1C (stereo not drawn) [IV-59],4 (70 to less than 90% of herbicidal effect and crop phytotoxicity),3 (50 to less than 70% of herbicidal effect and crop phytotoxicity),4 (70 to less than 90% of herbicidal effect and crop phytotoxicity)
Cn1ncc(C(=O)c2ccc(C(F)(F)F)n(CCCS(C)(=O)=O)c2=O)c1O [IV-60],5 (90% or more of herbicidal effect and crop phytotoxicity),5 (90% or more of herbicidal effect and crop phytotoxicity),5 (90% or more of herbicidal effect and crop phytotoxicity)
CCCS(=O)(=O)Oc1c(C(=O)c2ccc(C(F)(F)F)n(CCCS(C)(=O)=O)c2=O)cnn1C [IV-61],5 (90% or more of herbicidal effect and crop phytotoxicity),5 (90% or more of herbicidal effect and crop phytotoxicity),5 (90% or more of herbicidal effect and crop phytotoxicity)
COc1ccccc1-n1c(C(F)(F)F)ccc(C(=O)c2cnn(C)c2O)c1=O [IV-64],5 (90% or more of herbicidal effect and crop phytotoxicity),5 (90% or more of herbicidal effect and crop phytotoxicity),5 (90% or more of herbicidal effect and crop phytotoxicity)
COc1ccc(-n2c(C(F)(F)F)ccc(C(=O)c3cnn(C)c3O)c2=O)cc1 [IV-66],5 (90% or more of herbicidal effect and crop phytotoxicity),5 (90% or more of herbicidal effect and crop phytotoxicity),5 (90% or more of herbicidal effect and crop phytotoxicity)
CCCS(=O)(=O)Oc1c(C(=O)c2ccc(C(F)(F)F)n(-c3cccc([S+](C)[O-])c3)c2=O)cnn1C (stereo not drawn) [IV-73],4 (70 to less than 90% of herbicidal effect and crop phytotoxicity),4 (70 to less than 90% of herbicidal effect and crop phytotoxicity),3 (50 to less than 70% of herbicidal effect and crop phytotoxicity)
CCCS(=O)(=O)Oc1c(C(=O)c2ccc(C(F)(F)F)n(-c3cccc(S(C)(=O)=O)c3)c2=O)cnn1C [IV-75],5 (90% or more of herbicidal effect and crop phytotoxicity),5 (90% or more of herbicidal effect and crop phytotoxicity),5 (90% or more of herbicidal effect and crop phytotoxicity)
COc1ccc(-n2c(C(F)(F)F)ccc(C(=O)c3cnn(C)c3O)c2=O)c(OC)c1 [IV-76],4 (70 to less than 90% of herbicidal effect and crop phytotoxicity),5 (90% or more of herbicidal effect and crop phytotoxicity),5 (90% or more of herbicidal effect and crop phytotoxicity)
CCCS(=O)(=O)Oc1c(C(=O)c2ccc(C(F)(F)F)n(-c3ccc(Cl)c(OC)c3)c2=O)cnn1C [IV-91],4 (70 to less than 90% of herbicidal effect and crop phytotoxicity),5 (90% or more of herbicidal effect and crop phytotoxicity),4 (70 to less than 90% of herbicidal effect and crop phytotoxicity)
COc1cccc(Cn2c(C(F)(F)F)ccc(C(=O)c3cnn(C)c3O)c2=O)c1 [IV-103],4 (70 to less than 90% of herbicidal effect and crop phytotoxicity),4 (70 to less than 90% of herbicidal effect and crop phytotoxicity),5 (90% or more of herbicidal effect and crop phytotoxicity)
